Earlier results as cited in article PMC9869109 (Angewandte Chemie (International ed. in English), 2022).

Tested on: cell nuclei
Conditions: previous result ref 12

In the case of NBD-llllpY, the nuclear-targeting ability is listed as “weak nuclear-targeting ability”.
